According to ChEMBL document CHEMBL1201862, “PubChem BioAssay data set” (2004):
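Grown in 96-well plates, cells were treated for 48 hours with each compound at five concentrations. Insufficient inhibition: endpoint recorded as highest concentration tested. GI50 = concentration required for 50% inhibition of growth.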 Calls of active or inactive are those of the source. No stated cut-off is given here; in the data, active = GI50 up to about 1.1 µM and inactive = higher.

Experiments:
Experiment in all cases: NCI anticancer screen, dose series, 48 h
OVCAR-3 = test system: OVCAR-3
EKVX = test system: EKVX
DLD-1 = test system: DLD-1
RXF 393 = test system: RXF 393
SR = test system: SR
SN12C = test system: SN12C
UO-31 = test system: UO-31
COLO 205 = test system: COLO 205
Malme-3M = test system: Malme-3M
SNB-75 = test system: SNB-75
NCI-H226 = test system: NCI-H226
OVCAR-5 = test system: OVCAR-5
TK-10 = test system: TK-10
NCI-H23 = test system: NCI-H23
M14 = test system: M14
OVCAR-8 = test system: OVCAR-8
U-251 = test system: U-251
SK-MEL-5 = test system: SK-MEL-5
UACC-62 = test system: UACC-62
KM12 = test system: KM12
HCT-116 = test system: HCT-116
ACHN = test system: ACHN
A549 = test system: A549
NCI-H460 = test system: NCI-H460
MOLT-4 = test system: MOLT-4
KM-20L2 = test system: KM-20L2
HT-29 = test system: HT-29
SF-268 = test system: SF-268
HL-60 = test system: HL-60
M19-MEL = test system: M19-MEL
CAKI-1 = test system: CAKI-1
OVCAR-4 = test system: OVCAR-4
CCRF-CEM = test system: CCRF-CEM
SK-MEL-2 = test system: SK-MEL-2
LXFL 529 = test system: LXFL 529
SW-620 = test system: SW-620
HOP-62 = test system: HOP-62
K562 = test system: K562
NCI-H522 = test system: NCI-H522
LOX IMVI = test system: LOX IMVI
HCT-15 = test system: HCT-15
786-0 = test system: 786-0
HCC 2998 = test system: HCC 2998
IGROV-1 = test system: IGROV-1
HOP-18 = test system: HOP-18
SNB-19 = test system: SNB-19
SK-OV-3 = test system: SK-OV-3
SF-295 = test system: SF-295
DMS-273 = test system: DMS-273
UACC-257 = test system: UACC-257
SK-MEL-28 = test system: SK-MEL-28
RPMI-8226 = test system: RPMI-8226
HOP-92 = test system: HOP-92
SF-539 = test system: SF-539
SNB-78 = test system: SNB-78
A498 = test system: A498
DMS-114 = test system: DMS-114

`COc1cccc(C(=O)O)c1Cc1cccc2ccccc12` was tested, and the GI50 (OVCAR-3) was > 100 µM (inactive), the GI50 (EKVX) was > 100 µM (inactive) and the GI50 (DLD-1) was > 100 µM (inactive). For the same molecule, the GI50 (RXF 393) was > 100 µM (inactive), the GI50 (SR) was > 100 µM (inactive) and the GI50 (SN12C) was > 100 µM (inactive). The GI50 (UO-31) was > 100 µM (inactive), the GI50 (COLO 205) was > 100 µM (inactive) and the GI50 (Malme-3M) was > 100 µM (inactive). For the same molecule, the GI50 (SNB-75) was > 100 µM (inactive), the GI50 (NCI-H226) was > 100 µM (inactive) and the GI50 (OVCAR-5) was > 100 µM (inactive). The GI50 (TK-10) was > 100 µM (inactive), the GI50 (NCI-H23) was > 100 µM (inactive) and the GI50 (M14) was > 100 µM (inactive). For the same molecule, the GI50 (OVCAR-8) was 99.8 µM (inactive), the GI50 (U-251) was > 100 µM (inactive) and the GI50 (SK-MEL-5) was > 100 µM (inactive). The GI50 (UACC-62) was > 100 µM (inactive), the GI50 (KM12) was > 100 µM (inactive) and the GI50 (HCT-116) was > 100 µM (inactive). The GI50 (ACHN) was > 100 µM (inactive), the GI50 (A549) was > 100 µM (inactive) and the GI50 (NCI-H460) was > 100 µM (inactive). For the same molecule, the GI50 (MOLT-4) was > 100 µM (inactive), the GI50 (KM-20L2) was > 100 µM (inactive) and the GI50 (HT-29) was > 100 µM (inactive). The GI50 (SF-268) was > 100 µM (inactive), the GI50 (HL-60) was > 100 µM (inactive) and the GI50 (M19-MEL) was > 100 µM (inactive). The GI50 (CAKI-1) was > 100 µM (inactive), the GI50 (OVCAR-4) was > 100 µM (inactive) and the GI50 (CCRF-CEM) was > 100 µM (inactive). The GI50 (SK-MEL-2) was > 100 µM (inactive), the GI50 (LXFL 529) was > 100 µM (inactive) and the GI50 (SW-620) was > 100 µM (inactive). The GI50 (HOP-62) was > 100 µM (inactive), the GI50 (K562) was > 100 µM (inactive) and the GI50 (NCI-H522) was > 100 µM (inactive). The GI50 (LOX IMVI) was > 100 µM (inactive), the GI50 (HCT-15) was greater than 100 µM and the GI50 (786-0) was > 100 µM (inactive). The GI50 (HCC 2998) was > 100 µM (inactive), the GI50 (IGROV-1) was > 100 µM (inactive) and the GI50 (HOP-18) was > 100 µM (inactive). The GI50 (SNB-19) was > 100 µM (inactive), the GI50 (SK-OV-3) was > 100 µM (inactive) and the GI50 (SF-295) was > 100 µM (inactive). For the same molecule, the GI50 (DMS-273) was > 100 µM (inactive), the GI50 (UACC-257) was > 100 µM (inactive) and the GI50 (SK-MEL-28) was > 100 µM (inactive).
With `N#CC(c1ccc(Cl)cc1)c1c(=O)[nH]c2ccc(N)cc2[n+]1[O-]` (stereo not given) the GI50 (OVCAR-3) was > 100 µM (inactive), the GI50 (RPMI-8226) was > 100 µM (inactive) and the GI50 (EKVX) was > 100 µM (inactive). The GI50 (DLD-1) was > 100 µM (inactive), the GI50 (SR) was > 100 µM (inactive) and the GI50 (HOP-92) was > 100 µM (inactive). For the same molecule, the GI50 (SNB-75) was > 100 µM (inactive), the GI50 (NCI-H226) was > 100 µM (inactive) and the GI50 (SF-539) was > 100 µM (inactive). The GI50 (TK-10) was > 100 µM (inactive), the GI50 (M14) was > 100 µM (inactive) and the GI50 (SK-MEL-5) was > 100 µM (inactive). For the same molecule, the GI50 (UACC-62) was > 100 µM (inactive), the GI50 (KM12) was > 100 µM (inactive) and the GI50 (HCT-116) was > 100 µM (inactive). For the same molecule, the GI50 (ACHN) was > 100 µM (inactive), the GI50 (A549) was > 100 µM (inactive) and the GI50 (MOLT-4) was > 100 µM (inactive). The GI50 (KM-20L2) was > 100 µM (inactive), the GI50 (HT-29) was > 100 µM (inactive) and the GI50 (SF-268) was > 100 µM (inactive). For the same molecule, the GI50 (HL-60) was > 100 µM (inactive), the GI50 (M19-MEL) was > 100 µM (inactive) and the GI50 (CAKI-1) was > 100 µM (inactive). The GI50 (CCRF-CEM) was > 100 µM (inactive), the GI50 (LXFL 529) was > 100 µM (inactive) and the GI50 (SW-620) was > 100 µM (inactive). The GI50 (K562) was > 100 µM (inactive), the GI50 (NCI-H522) was > 100 µM (inactive) and the GI50 (LOX IMVI) was > 100 µM (inactive). For the same molecule, the GI50 (786-0) was > 100 µM (inactive), the GI50 (IGROV-1) was > 100 µM (inactive) and the GI50 (SK-OV-3) was > 100 µM (inactive). For the same molecule, the GI50 (SF-295) was > 100 µM (inactive), the GI50 (DMS-273) was > 100 µM (inactive) and the GI50 (UACC-257) was > 100 µM (inactive). For the same molecule, the GI50 (SK-MEL-28) was > 100 µM (inactive).
In the case of `CCCCCCC(=O)C/C(CCC(=O)N(Cc1ccccc1)Cc1ccccc1)=N\Nc1ccc([N+](=O)[O-])cc1[N+](=O)[O-]`, the GI50 (OVCAR-3) is reported as 35.4 µM (inactive), the GI50 (RPMI-8226) is reported as 31.9 µM (inactive) and the GI50 (EKVX) is reported as 29.1 µM (inactive). For the same molecule, the GI50 (DLD-1) was 42 µM (inactive), the GI50 (RXF 393) was > 100 µM (inactive) and the GI50 (SNB-78) was > 100 µM (inactive). The GI50 (SR) was > 10 µM (inactive), the GI50 (SN12C) was 56.1 µM (inactive) and the GI50 (UO-31) was 51.6 µM (inactive). The GI50 (COLO 205) was 41.1 µM (inactive), the GI50 (HOP-92) was 51.1 µM (inactive) and the GI50 (Malme-3M) was > 100 µM (inactive). The GI50 (A498) was 62.8 µM (inactive), the GI50 (SNB-75) was 39.1 µM (inactive) and the GI50 (NCI-H226) was > 100 µM (inactive). For the same molecule, the GI50 (SF-539) was 54.5 µM (inactive), the GI50 (OVCAR-5) was > 100 µM (inactive) and the GI50 (TK-10) was > 100 µM (inactive). The GI50 (NCI-H23) was 38.7 µM (inactive), the GI50 (M14) was 57.8 µM (inactive) and the GI50 (OVCAR-8) was 54.7 µM (inactive). The GI50 (U-251) was 54.1 µM (inactive), the GI50 (SK-MEL-5) was 55.5 µM (inactive) and the GI50 (UACC-62) was 16.2 µM (inactive). For the same molecule, the GI50 (KM12) was 46 µM (inactive), the GI50 (HCT-116) was 35.1 µM (inactive) and the GI50 (ACHN) was 27.3 µM (inactive). For the same molecule, the GI50 (A549) was 46.1 µM (inactive), the GI50 (NCI-H460) was 71.1 µM (inactive) and the GI50 (MOLT-4) was > 10 µM (inactive). For the same molecule, the GI50 (KM-20L2) was 56.8 µM (inactive), the GI50 (HT-29) was 89.9 µM (inactive) and the GI50 (SF-268) was 39.1 µM (inactive). The GI50 (HL-60) was 32.2 µM (inactive), the GI50 (DMS-114) was 17 µM (inactive) and the GI50 (M19-MEL) was 55.7 µM (inactive). For the same molecule, the GI50 (CAKI-1) was > 100 µM (inactive), the GI50 (OVCAR-4) was 40.1 µM (inactive) and the GI50 (CCRF-CEM) was 17.3 µM (inactive). For the same molecule, the GI50 (SK-MEL-2) was 83.4 µM (inactive), the GI50 (LXFL 529) was 31 µM (inactive) and the GI50 (SW-620) was 55.6 µM (inactive). For the same molecule, the GI50 (HOP-62) was > 100 µM (inactive), the GI50 (K562) was 20.3 µM (inactive) and the GI50 (NCI-H522) was 23.7 µM (inactive). For the same molecule, the GI50 (LOX IMVI) was 33.3 µM (inactive), the GI50 (HCT-15) was 42.5 µM and the GI50 (786-0) was 58.5 µM (inactive). The GI50 (HCC 2998) was 73.6 µM (inactive), the GI50 (IGROV-1) was > 100 µM (inactive) and the GI50 (HOP-18) was 55.1 µM (inactive). For the same molecule, the GI50 (SNB-19) was > 100 µM (inactive), the GI50 (SK-OV-3) was > 100 µM (inactive) and the GI50 (SF-295) was 55.1 µM (inactive). For the same molecule, the GI50 (DMS-273) was 55.8 µM (inactive), the GI50 (UACC-257) was 48 µM (inactive) and the GI50 (SK-MEL-28) was 99.3 µM (inactive).
